{"source": "paper PMC12464775", "about": "“Selective and Potent Peptide Binders of RNF43 for Wnt Signaling Inhibition” (ACS Central Science, 2025)", "note": "Bridge positions count the residues as written; N and C are the ends. Peptide text beside a SMILES is read from it."}
{"test_system": "ZNRF3", "experiment": "SPR binding to ZNRF3 (specificity)", "conditions": "protein immobilized, untagged DCP injected", "experimental": "SPR measurement was carried out using a Biacore S200 (Cytiva) instrument, with PBS-T (PBS with 0.05% Tween 20, pH 7.4) as the buffer. Biotinylated protein was captured on three sensor channels of Series S SA Sensors (Cytiva). The sensors were then blocked with 0.1 mg/mL biotin. DCPs were injected onto the sensor in a 3× concentration series. The data were double-referenced by subtracting the signal from a sensor channel coated with biotin only and the signal from a buffer injection. For data analysis, binding data were fitted using the manufacturer’s software. ,"}
{"smiles": "CC[C@H](C)[C@H](NC(=O)[C@@H]1CSSC[C@H](NC(=O)[C@H](CCC(N)=O)NC(=O)[C@H](CO)NC(=O)[C@H](Cc2ccc(O)cc2)NC(=O)[C@H](CCCCN)NC(=O)[C@H](Cc2ccccc2)NC(=O)[C@H](CC(N)=O)NC(=O)[C@@H]2CSSC[C@H](NC(=O)[C@H](CCC(N)=O)NC(=O)[C@@H](N)CCC(=O)O)C(=O)N[C@@H](CC(=O)O)C(=O)N[C@@H](CCC(N)=O)C(=O)N[C@@H]([C@@H](C)O)C(=O)N[C@@H](CC(N)=O)C(=O)N[C@@H](CC(C)C)C(=O)N[C@@H](Cc3ccccc3)C(=O)N2)C(=O)N[C@H]2CSSC[C@H](NC(=O)[C@H](CC(=O)O)NC(=O)[C@H](CC(C)C)NC(=O)[C@@H]3CCCN3C(=O)[C@H](Cc3c[nH]c4ccccc34)NC2=O)C(=O)N[C@@H](CCCNC(=N)N)C(=O)N[C@@H](Cc2c[nH]c3ccccc23)C(=O)N[C@@H](C)C(=O)N[C@@H](C(C)C)C(=O)N[C@@H](CCCCN)C(=O)N[C@@H](Cc2ccc(O)cc2)C(=O)N[C@@H](CCC(N)=O)C(=O)N[C@@H](Cc2c[nH]c3ccccc23)C(=O)N[C@@H](Cc2ccccc2)C(=O)N[C@@H](Cc2c[nH]c3ccccc23)C(=O)N[C@@H](CC(=O)O)C(=O)N1)C(=O)NCC(=O)O", "note": "[GUR-1.6.12.4] (H-EQCDQTNLFCNFKYSQCCWPLDCRWAVKYQWFWDCIG-OH; disulfide 3-10, 17-35, 18-23)", "binding to ZNRF3": "lack of binding"}
{"smiles": "CC[C@H](C)[C@H](NC(=O)[C@@H]1CSSC[C@H](NC(=O)[C@H](CCC(N)=O)NC(=O)[C@@H](NC(=O)[C@H](Cc2ccc(O)cc2)NC(=O)[C@@H](NC(=O)[C@H](CC(C)C)NC(=O)CNC(=O)[C@@H]2CSSC[C@H](NC(=O)[C@H](CCC(N)=O)NC(=O)[C@@H](N)CCC(=O)O)C(=O)N[C@@H](CC(=O)O)C(=O)N[C@@H](CCC(N)=O)C(=O)N[C@@H](CC(=O)O)C(=O)N[C@@H](C)C(=O)N[C@@H](CO)C(=O)N[C@@H](C)C(=O)N2)[C@@H](C)CC)[C@@H](C)O)C(=O)N[C@H]2CSSC[C@H](NC(=O)[C@H](CC(=O)O)NC(=O)[C@H](CC(C)C)NC(=O)[C@@H]3CCCN3C(=O)[C@H](Cc3c[nH]c4ccccc34)NC2=O)C(=O)N[C@@H](CCCNC(=N)N)C(=O)N[C@@H](Cc2c[nH]c3ccccc23)C(=O)N[C@@H](C)C(=O)N[C@@H](C(C)C)C(=O)N[C@@H](CCCCN)C(=O)N[C@@H](Cc2ccc(O)cc2)C(=O)N[C@@H](CCC(N)=O)C(=O)N[C@@H](Cc2c[nH]c3ccccc23)C(=O)N[C@@H](Cc2ccccc2)C(=O)N[C@@H](Cc2c[nH]c3ccccc23)C(=O)N[C@@H](CC(=O)O)C(=O)N1)C(=O)NCC(=O)O", "note": "[GUR-1.6.12.12] (H-EQCDQDASACGLIYTQCCWPLDCRWAVKYQWFWDCIG-OH; disulfide 3-10, 17-35, 18-23)", "binding to ZNRF3": "lack of binding"}
{"smiles": "CC[C@H](C)[C@H](NC(=O)[C@@H]1CSSC[C@H](NC(=O)[C@H](CO)NC(=O)[C@H](Cc2c[nH]cn2)NC(=O)[C@@H](NC(=O)[C@@H]2CCCN2C(=O)[C@H](CCC(N)=O)NC(=O)[C@@H](NC(=O)[C@@H]2CSSC[C@H](NC(=O)[C@H](CCC(N)=O)NC(=O)[C@@H](N)CCC(=O)O)C(=O)N[C@@H](CCCNC(=N)N)C(=O)N[C@@H](CCC(=O)O)C(=O)N[C@@H](Cc3c[nH]cn3)C(=O)N[C@@H](Cc3ccccc3)C(=O)N[C@@H](Cc3c[nH]cn3)C(=O)N[C@@H](CC(=O)O)C(=O)N2)C(C)C)[C@@H](C)CC)C(=O)N[C@H]2CSSC[C@H](NC(=O)[C@H](CC(=O)O)NC(=O)[C@H](CC(C)C)NC(=O)[C@@H]3CCCN3C(=O)[C@H](Cc3c[nH]c4ccccc34)NC2=O)C(=O)N[C@@H](CCCNC(=N)N)C(=O)N[C@@H](Cc2c[nH]c3ccccc23)C(=O)N[C@@H](C)C(=O)N[C@@H](C(C)C)C(=O)N[C@@H](CCCCN)C(=O)N[C@@H](Cc2ccc(O)cc2)C(=O)N[C@@H](CCC(N)=O)C(=O)N[C@@H](Cc2c[nH]c3ccccc23)C(=O)N[C@@H](Cc2ccccc2)C(=O)N[C@@H](Cc2c[nH]c3ccccc23)C(=O)N[C@@H](CC(=O)O)C(=O)N1)C(=O)NCC(=O)O", "note": "[GUR-1.6.12.16] (H-EQCREHFHDCVQPIHSCCWPLDCRWAVKYQWFWDCIG-OH; disulfide 3-10, 17-35, 18-23)", "binding to ZNRF3": "lack of binding"}
